Data: patent US9556202B2, “Sulfonamide derivatives and methods of use thereof for improving the pharmacokinetics of a drug” (MERCK SHARP & DOHME CORP., priority 2012, dated 2017)
pIC50: −log10 of the molar value.

Assays:
CYP1A2 = biological target: T1, CYP1A2 (Homo sapiens, UniProt P05177); experiment: Cocktail CYP inhibition assay in human liver microsomes, phenacetin O-deethylation; type: in vitro ADME; settings: human liver microsomes 0.1 mg/mL, 10 μM phenacetin, 10 min 37° C.; test conc. up to 10 μM; unit inferred
T1 construct: 0.1 mg/mL protein human liver microsomes (BD Gentest); tissue BD Gentest; host or cells: human liver microsomes
T1 sequence (P05177 1-516): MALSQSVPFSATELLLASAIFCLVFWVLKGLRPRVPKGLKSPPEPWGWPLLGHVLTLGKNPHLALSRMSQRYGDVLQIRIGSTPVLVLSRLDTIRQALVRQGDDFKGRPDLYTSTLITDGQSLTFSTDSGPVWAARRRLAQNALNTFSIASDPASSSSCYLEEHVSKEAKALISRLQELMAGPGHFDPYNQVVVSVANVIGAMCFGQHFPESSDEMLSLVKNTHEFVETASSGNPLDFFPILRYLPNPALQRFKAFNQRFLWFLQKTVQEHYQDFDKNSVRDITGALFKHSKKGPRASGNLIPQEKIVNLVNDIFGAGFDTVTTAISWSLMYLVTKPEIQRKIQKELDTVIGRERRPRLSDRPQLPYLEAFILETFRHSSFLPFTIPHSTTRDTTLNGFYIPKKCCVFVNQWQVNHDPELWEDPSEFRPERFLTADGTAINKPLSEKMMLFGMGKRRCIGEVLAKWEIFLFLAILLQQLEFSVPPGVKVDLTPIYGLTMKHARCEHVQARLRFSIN
Description: (§1) Determination of IC50 in a Cocktail Assay for CYPs 1A2, 2C9, 2C19, 2D6 and 3A4
(§2) This assay was performed in a standard 96-well plate design. IC50 values were calculated from the percent inhibition observed for each test compound at 6 concentrations (for example, 0.0032, 0.016, 0.08, 0.4, 2 and 10 μM). The incubation substrate mix contains 10 μM phenacetin (1A2), 5 μM diclofenac (2C9), 30 μM mephenytoin (2C19), 5 μM dextromethorphan (2D6) and 2 μM midazolam (3A4), 0.1 mg/mL protein human liver microsomes (BD Gentest), 1 mM NAPDH, 3.3 mM MgCl2 and 100 mM potassium phosphate buffer (pH 7.4). The production of the metabolite of each probe substrate was determined after incubation for 10 min at 37° C. Quantitation of the metabolite peak area ratio against an internal standard (tolbutamide) was determined by LC/MS/MS analysis following acetonitrile treatment of the incubations.
(§3) Samples were analyzed in the MRM mode with a SCIEX API-4000 mass spectrometer (Applied Biosystems, Foster City, Calif.), with a Shimadzu LC-20 AD pump (Shimadzu corporation, Kyoto, JP) and a CTC PAL autosampler (Agilent Technologies, Switzerland). A Phenomenex, Luna, 5 μm, 100 A, 2.00×30 mm HPLC column was used for the separation. The mobile phases were: (A) 0.1% formic acid in water and (B) 0.1% formic acid in acetonitrile. The binary gradient was as follows.
(§4) The peak area ratio of the analyte to the internal standard was used to quantify the metabolite. The values of peak area ratios in the presence of test compound were compared to those of maximum or minimum controls and were expressed as % inhibition by interpolating between the maximum and minimum peak area ratios. Incubations with no inhibitor were defined as the maxima.
(§5) The following equation was used to calculate the % inhibition: [1−[(X−Low control)/(High control−Low control)]]*100
(§6) For the IC50 calculation, SigmaPlot was used to plot the mean % inhibition versus the test compound concentrations and for non-linear regression analysis of the data. […]

CYP2C9 = biological target: T2, CYP2C9 (Homo sapiens, UniProt P11712); experiment: Cocktail CYP inhibition assay in human liver microsomes, diclofenac 4'-hydroxylation; type: in vitro ADME; settings: human liver microsomes 0.1 mg/mL, 5 μM diclofenac, 10 min 37° C.; unit inferred
T2 construct: 0.1 mg/mL protein human liver microsomes (BD Gentest); tissue BD Gentest; host or cells: human liver microsomes
T2 sequence (P11712 whole entry): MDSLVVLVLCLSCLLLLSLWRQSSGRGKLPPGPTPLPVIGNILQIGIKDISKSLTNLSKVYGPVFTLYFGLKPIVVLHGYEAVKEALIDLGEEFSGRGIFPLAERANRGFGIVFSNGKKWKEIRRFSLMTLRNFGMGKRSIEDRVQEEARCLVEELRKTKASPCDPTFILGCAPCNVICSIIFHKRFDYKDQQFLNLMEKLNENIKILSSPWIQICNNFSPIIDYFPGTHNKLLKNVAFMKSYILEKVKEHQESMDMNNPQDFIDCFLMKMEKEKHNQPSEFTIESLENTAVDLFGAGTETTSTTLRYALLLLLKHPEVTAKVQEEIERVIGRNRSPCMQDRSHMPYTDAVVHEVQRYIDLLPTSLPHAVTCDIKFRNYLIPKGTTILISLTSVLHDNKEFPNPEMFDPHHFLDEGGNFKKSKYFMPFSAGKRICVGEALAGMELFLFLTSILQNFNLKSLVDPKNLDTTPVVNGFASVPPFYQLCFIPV
Description: as §1, §2, §3, §4, §5, §6

human CYP11B1 = biological target: T3, human CYP11B1 (Homo sapiens, UniProt P15538); experiment: IC50 vs CYP11B1 by cortisol synthesis in V79 cells (HTRF); type: cell-based; settings: V79 cells expressing human CYP11B1, 1500 nM RSS, test conc. 0.5-10000 nM, unit inferred
T3 construct: expressed in transfected cells
T3 sequence (P15538 25-503): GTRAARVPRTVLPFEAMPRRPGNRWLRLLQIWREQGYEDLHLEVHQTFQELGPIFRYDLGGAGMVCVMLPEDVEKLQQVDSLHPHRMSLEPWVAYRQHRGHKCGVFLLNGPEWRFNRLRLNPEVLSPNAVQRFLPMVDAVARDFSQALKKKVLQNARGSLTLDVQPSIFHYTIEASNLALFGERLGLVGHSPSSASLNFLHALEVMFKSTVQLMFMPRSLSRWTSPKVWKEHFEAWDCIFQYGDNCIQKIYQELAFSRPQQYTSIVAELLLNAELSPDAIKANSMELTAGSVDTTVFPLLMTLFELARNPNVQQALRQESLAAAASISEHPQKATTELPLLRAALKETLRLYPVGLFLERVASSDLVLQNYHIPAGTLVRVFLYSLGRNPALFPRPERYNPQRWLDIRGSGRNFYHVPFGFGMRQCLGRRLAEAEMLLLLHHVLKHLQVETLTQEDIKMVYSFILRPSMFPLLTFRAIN
Description: Determination of IC50 Vs CYP11B1/CYP11B2 by Measurement of Cortisol/Aldosterone Synthesis
This assay was performed in a standard 384-well plate design using cultured V79 cells stably expressing human CYP11B1 or human CYP11B2. Test compounds at 10 concentrations (for example, 10000, 3333.3, 1111.1, 370.4, 123.5, 41.2, 13.7, 4.6, 1.5 and 0.5 nM) were added in 384-well plate after the cell-seeding procedure. The incubation substrate contains 1500 nM RSS for CYP11B1 assay/750 nM DOC for CYP11B2 assay. The Cortisol/Aldosterone production of cell culture supernatant was determined by Cortisol/Aldosterone HTRF kit after for about 15 hours incubation at RT (protect from light). IC50 values were calculated from the percent inhibition observed for each test compound at 10 concentrations.
The assay plate was read using Envision (Perkin Elmer, Waltham, Mass.) at 665 nm and 590 nm (using Filter Barcode of 217#, 205#; Mirror Barcode of 446#).
Data are analyzed using Assay Data Analyzer. All ratio data (665 nm/590 nm) are back calculated according to the standard curve, resulting in Cortisol/Aldosterone concentrations. IC50 values are reported as the Inflection Point (IP) of a four parameter fit of the titration data.
The following equation was used to calculate the % inhibition: % Activity=100×{1−(Sample_back calculated Cortisol/Aldosterone concentration−LC_back calculated Cortisol/Aldosterone concentration)/(HC_back calculated Cortisol/Aldosterone concentration−LC_back calculated Cortisol/Aldosterone concentration)} Curve Fitting: Four Parameter Logistic: […]

Row | pIC50 (CYP1A2) | pIC50 (CYP2C9) | pIC50 (human CYP11B1) | SMILES
1 | < 5.00 | < 5.00 | 5.66 | COCC(c1cncn1[C@H](C)c1ccc(F)cc1)N1CCN(S(=O)(=O)c2cnc(N3CCN(C)CC3)s2)CC1 (single isomer, unassigned) [Compound 35]
2 | < 5.00 | 5.91 | 5.67 | C[C@H](c1ccc(F)cc1)n1cncc1C1CCCC2CN(S(=O)(=O)c3cnc(Nc4ccccn4)s3)CCN21 (single isomer, unassigned) [Compound 38]
3 | < 5.00 | < 5.00 | 5.87 | COCCC(c1cncn1[C@H](C)c1ccc(F)cc1)N1CCN(S(=O)(=O)c2cnc(N3CCN(C)CC3)s2)CC1 (single isomer, unassigned) [Compound 36]
